The target in experiment [1] is T1, ACE-2 (Homo sapiens, UniProt Q9BYF1).
T1 construct: a stop codon inserted after the serine immediately preceding the transmembrane domain; made in house; host or cells: CHO K1 cells (transient transfection, purified from conditioned medium)
Nature of the experiment: ACE-2 Competitive Substrate Assay (ACS Assay). Conditions: Ki class; compounds tested in 5% DMSO, 12 concentrations; read-out: Human ACE-2 Activity. Type of experiment: biochemical.

The target of experiment [2] is T2, ACE (Sigma, A2580) (Sus scrofa, UniProt F1RRW5).
T2 construct: ACE from porcine kidney; purchased Sigma A2580; host or cells: porcine kidney
T2 sequence (F1RRW5 34-1309): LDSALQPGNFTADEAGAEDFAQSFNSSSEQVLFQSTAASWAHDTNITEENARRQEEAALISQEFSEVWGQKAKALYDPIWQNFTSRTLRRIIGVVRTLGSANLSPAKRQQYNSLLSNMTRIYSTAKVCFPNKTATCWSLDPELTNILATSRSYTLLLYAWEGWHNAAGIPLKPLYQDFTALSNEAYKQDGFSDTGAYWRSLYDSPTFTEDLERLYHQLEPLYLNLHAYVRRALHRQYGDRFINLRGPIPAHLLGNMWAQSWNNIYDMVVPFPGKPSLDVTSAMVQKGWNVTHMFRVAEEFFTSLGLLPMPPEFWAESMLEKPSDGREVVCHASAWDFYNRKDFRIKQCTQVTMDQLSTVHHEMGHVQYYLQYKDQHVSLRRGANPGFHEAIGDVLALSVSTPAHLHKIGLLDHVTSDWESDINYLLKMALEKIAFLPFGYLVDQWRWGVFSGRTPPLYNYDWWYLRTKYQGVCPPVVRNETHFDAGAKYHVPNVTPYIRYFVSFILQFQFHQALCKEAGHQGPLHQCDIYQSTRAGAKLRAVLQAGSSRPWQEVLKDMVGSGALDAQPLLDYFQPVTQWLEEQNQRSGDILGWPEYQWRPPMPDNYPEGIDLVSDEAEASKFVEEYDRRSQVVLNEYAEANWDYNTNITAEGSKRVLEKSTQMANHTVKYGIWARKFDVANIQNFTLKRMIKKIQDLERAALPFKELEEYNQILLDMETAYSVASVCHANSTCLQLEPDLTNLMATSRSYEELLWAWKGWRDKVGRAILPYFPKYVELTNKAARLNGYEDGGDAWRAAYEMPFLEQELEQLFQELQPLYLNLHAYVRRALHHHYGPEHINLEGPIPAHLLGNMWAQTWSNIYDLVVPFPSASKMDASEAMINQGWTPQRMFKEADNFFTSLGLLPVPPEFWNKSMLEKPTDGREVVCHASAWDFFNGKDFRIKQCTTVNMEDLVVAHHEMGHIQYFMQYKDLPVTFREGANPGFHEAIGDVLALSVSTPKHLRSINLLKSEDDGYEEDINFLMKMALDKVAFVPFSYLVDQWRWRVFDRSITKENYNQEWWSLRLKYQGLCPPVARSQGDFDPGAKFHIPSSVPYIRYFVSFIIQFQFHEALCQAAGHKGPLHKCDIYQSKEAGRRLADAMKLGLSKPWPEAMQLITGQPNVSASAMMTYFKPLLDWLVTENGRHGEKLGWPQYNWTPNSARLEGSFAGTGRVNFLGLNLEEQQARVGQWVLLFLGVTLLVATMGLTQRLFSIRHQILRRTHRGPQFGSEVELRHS
Nature of the experiment: ACE enzymatic activity assay. The class given is biochemical, porcine. Conditions: Ki class; compounds tested in 5% DMSO, 12 concentrations. The protocol: ACE (Sigma, A2580) enzymatic activity was assayed in microtiter plates using the following protocol. ACE assay buffer was made from 50 mM HEPES (Sigma), 300 mM sodium chloride (Sigma), and 0.01% Brij-35 (Pierce Chemical Co) at pH 7.5.
Reactions were mixed and incubated at 25° C. Enzymatic cleavage of the substrate is marked by a fluorescence change (excitation 330 nm, emission 415 nm).
The activity of the test compounds was investigated using the procedure outlined above. The compounds were tested in 5% DMSO. Enzyme activity was measured at 12 compound concentrations. […]. […]

In experiment [3] the target is T3, Carboxypeptidase A (Bos taurus, UniProt P00730).
T3 sequence (P00730 111-419): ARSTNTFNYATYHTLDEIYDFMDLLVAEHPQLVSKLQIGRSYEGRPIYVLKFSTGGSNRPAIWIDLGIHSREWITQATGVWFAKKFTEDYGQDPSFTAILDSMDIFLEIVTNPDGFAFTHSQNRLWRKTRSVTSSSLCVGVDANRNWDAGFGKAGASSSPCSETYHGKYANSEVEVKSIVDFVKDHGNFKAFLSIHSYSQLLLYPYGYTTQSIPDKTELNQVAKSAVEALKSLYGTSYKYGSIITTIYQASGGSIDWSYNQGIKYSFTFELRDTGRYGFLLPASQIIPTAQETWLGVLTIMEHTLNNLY
The experiment can be described thus: Carboxypeptidase A activity assay. Conditions: Ki class; compounds tested in 5% DMSO, 12 concentrations. Type of experiment: biochemical. The protocol:
Carboxypeptidase A activity was measured using a literature assay (Holmquist and Riordan, “Carboxypeptidase A,” Methods of Enzymatic Analysis (1984) p. 44–60). The assay was adapted to a 96 well format by adjusting to a 300 μL assay volume and using ultra-thin bottom plates (Costar/Corning) read at 328 nm. The assay was stopped using EDTA.
The activity of the test compounds was investigated using the procedure outlined above. The compounds were tested in 5% DMSO. Enzyme activity was measured at 12 compound concentrations. The Ki was calculated by using Ki=Kiapp/(1+[S]/Km).
To determine whether a test compound is capable of modulating carboxypeptidase A's ability to cleave a substrate the method described in Holmquist and Riordan, Carboxypeptidase A, p44–60, Peptidase and Their Inhibitors in Method of Enzymatic Analysis (1984), may be used.
The assay may be adapted to a 96 well format by adjusting to a 300 μl assay volume and using ultrathin bottom plates (Costar/Coming) read at 328 nm with a final assay volume of 300 μl. The assay may be stopped using EDTA.

Structures are written as SMILES.

Our source for the Ki values is patent US7045532B2 (Millennium Pharmaceuticals, Inc., priority 1999, dated 2006).

T1 sequence (Q9BYF1 18-740 limits assumed): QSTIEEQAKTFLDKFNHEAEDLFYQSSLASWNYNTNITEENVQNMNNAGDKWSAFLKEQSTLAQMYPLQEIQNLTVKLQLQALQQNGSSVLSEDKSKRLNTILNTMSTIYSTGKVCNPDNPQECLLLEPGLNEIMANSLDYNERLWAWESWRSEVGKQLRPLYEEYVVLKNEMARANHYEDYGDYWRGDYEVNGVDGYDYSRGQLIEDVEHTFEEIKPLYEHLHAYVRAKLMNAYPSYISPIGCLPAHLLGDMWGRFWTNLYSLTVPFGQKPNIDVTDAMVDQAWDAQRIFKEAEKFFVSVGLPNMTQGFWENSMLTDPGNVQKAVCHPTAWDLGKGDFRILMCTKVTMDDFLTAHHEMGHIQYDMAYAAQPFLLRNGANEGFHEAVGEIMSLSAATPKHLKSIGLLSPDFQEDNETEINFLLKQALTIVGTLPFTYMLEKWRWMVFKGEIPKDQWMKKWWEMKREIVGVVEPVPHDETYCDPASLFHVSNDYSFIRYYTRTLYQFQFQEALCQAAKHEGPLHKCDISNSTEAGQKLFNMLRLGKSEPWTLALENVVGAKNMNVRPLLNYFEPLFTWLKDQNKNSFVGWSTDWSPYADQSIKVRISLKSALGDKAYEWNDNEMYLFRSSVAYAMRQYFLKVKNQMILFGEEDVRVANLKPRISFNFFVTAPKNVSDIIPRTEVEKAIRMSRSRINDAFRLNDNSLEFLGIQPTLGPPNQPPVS

Take `CC(C)CC(N[C@H](CC(=O)O)Cc1ccsc1)C(=O)O` (stereo in doubt) [EJ, 2-(1-Carboxymethyl-2-thiophen-3-yl-ethylamino)-4-methyl-pentanoic acid]: the Ki in experiment [1] is more than 500 nM; in experiment [2], more than 50 µM; in experiment [3] it was more than 50 µM.
Consider `CCCC(N[C@@H](Cc1ccccc1)C(=O)O)C(=O)O` (stereo partly drawn) [AA, 2-(1-Carboxy-2-phenyl-ethylamino)-pentanoicacid], for which the Ki in experiment [1] was more than 500 nM; in experiment [2], more than 50 µM; in experiment [3], more than 50 µM.
For the molecule `O=C(O)C(CO)N[C@@H](CCc1ccccc1)C(=O)O` (stereo partly drawn) [AB, 2-(1-Carboxy-2-hydroxy-ethylamino)-4-phenyl-butync acid], the Ki in experiment [1] is more than 500 nM; in experiment [2], more than 50 µM; in experiment [3], more than 50 µM.
In the case of `CC(N[C@@H](Cc1c[nH]c2ccccc12)C(=O)O)C(=O)O` (stereo partly drawn) [AG, 2-(1-Carboxy-ethylamino)-3-(1H-indol-3-yl)-propionic acid], the Ki in experiment [1] is more than 500 nM; in experiment [2] it was more than 50 µM; in experiment [3], more than 50 µM.
Take `CC(NC(Cc1cccs1)C(=O)O)C(=O)O` (stereo not drawn) [AH, 2-(1-Carboxy-ethylamino)-3-thiophen-2-yl-propionic acid]: the results for the Ki in experiment [1], in experiment [2] and in experiment [3] were more than 500 nM, more than 50 µM and more than 50 µM, respectively.
Turning to `CCCC(NC(Cc1cccs1)C(=O)O)C(=O)O` (stereo not drawn) [AI, 2-(1-Carboxy-2-thiophen-2-yl-ethylamino)-pentanoic acid], the results for the Ki in experiment [1], in experiment [2] and in experiment [3] were more than 500 nM, more than 50 µM and more than 50 µM, respectively.
With `O=C(O)C(CCc1ccccc1)N[C@@H](Cc1ccccc1)C(=O)O` (stereo partly drawn) [AJ, 2-(1-Carboxy-2-phenyl-ethylamino)-4-phenyl-butync acid], the Ki was more than 500 nM in experiment [1], more than 50 µM in experiment [2] and 10 to 50 µM in experiment [3].
For `CCC(NC(Cc1cccs1)C(=O)O)C(=O)O` (stereo not drawn) [AK, 2-(1-Carboxy-2-thiophen-2-yl-ethylamino)-butync acid] the same measures were more than 500 nM, more than 50 µM and more than 50 µM.
For `CC(C)CC(NC(Cc1cccs1)C(=O)O)C(=O)O` (stereo not drawn) [AL, 2-(1-Carobxy-2-thiophen-2-yl-ethylamino)-4-methyl-pentanoic acid] the same measures were more than 500 nM, more than 50 µM and more than 50 µM.
Taken in the same sequence, the figures for `CSCC[C@H](NC(C)C(=O)O)C(=O)O` (stereo partly drawn) [AM, 2-(1-Carboxy-ethylamino)-4-methylsulfanyl-butync acid] were more than 500 nM, more than 50 µM and more than 50 µM.
On to `CSCC[C@H](NC(CC(C)C)C(=O)O)C(=O)O` (stereo partly drawn) [AN, 2-(1-Carboxy-3-methylsulfanyl-propylamino)-4-methyl-pentanoic acid], for which the Ki in experiment [1] is more than 500 nM; in experiment [2] it was more than 50 µM; in experiment [3] it was 10 to 50 µM.
Consider `CC(N[C@H](CCc1ccccc1)C(=O)O)C(=O)O` (stereo partly drawn) [AW, 2-(1-Carboxy-ethylamino)-4-phenyl-butync acid], for which the Ki in experiment [1] is more than 500 nM; in experiment [2], more than 50 µM; in experiment [3], more than 50 µM.
Turning to `O=C(O)C(CCc1ccccc1)N[C@@H](CC1CCCCC1)C(=O)O` (stereo partly drawn) [BG, 2-(1-Carboxy-2-cyclohexyethylamino)-4-phenyl-butync acid], the results for the Ki in experiment [1], in experiment [2] and in experiment [3] were more than 500 nM, more than 50 µM and more than 50 µM, respectively.
For the molecule `CC(C)C[C@@H](NC(CCc1ccccc1)C(=O)O)C(=O)O` (stereo partly drawn) [BH, 2-(1-Carboxy-3-phenyl-propylamino)-4-methyl-pentanoic acid], the Ki in experiment [1] is more than 500 nM; in experiment [2], more than 50 µM; in experiment [3], more than 50 µM.
Regarding `C#CCC(N[C@@H](C(=O)O)c1ccccc1)C(=O)O` (stereo partly drawn) [BN, 2-[(Carboxy-phenyl-methyl)-amino]-pent-4-ylnoic acid], the values for the Ki in experiment [1], in experiment [2] and in experiment [3] were more than 500 nM, more than 50 µM and more than 50 µM, respectively.
Turning to `O=C(O)C(Cc1ccccc1)NC(C(=O)O)c1ccccc1` (stereo not drawn) [BO, 2-[(Carboxy-phenyl-methyl)-amino]-3-phenyl-propionic acid], the Ki was more than 500 nM in experiment [1], more than 50 µM in experiment [2] and 10 to 50 µM in experiment [3].
Taken in the same sequence, the figures for `O=C(O)[C@H](CC1CCCCC1)N[C@@H](C(=O)O)c1ccccc1` [BP, 2-[(Carboxy-phenyl-methyl)-amino]-3-cyclohexyl-propionic acid] were more than 500 nM, more than 50 µM and more than 50 µM.
As for `CCCC[C@H](N[C@@H](C(=O)O)c1ccccc1)C(=O)O` [BX, 2-[(Carboxy-phenyl-methyl)-amino]-hexanoicacid], the values for the Ki in experiment [1], in experiment [2] and in experiment [3] were more than 500 nM, more than 50 µM and more than 50 µM, respectively.
Consider `O=C(O)[C@H](NC1(C(=O)O)CCCCC1)c1ccccc1` [BY, 1-[(Carboxy-phenyl-methyl)-amino]-cyclohexanecarboxylic acid], for which the Ki in experiment [1] was more than 500 nM; in experiment [2], more than 50 µM; in experiment [3], more than 50 µM.
For `CC(C)CC(NCC(C)C(=O)O)C(=O)O` (stereo not drawn) [CG, 2-(2-Carboxy-propylamino)-4-methyl-pentanoic acid], the Ki was more than 500 nM in experiment [1], more than 50 µM in experiment [2] and more than 50 µM in experiment [3].
`CCCCCCC(N[C@H](CCc1ccccc1)C(=O)O)C(=O)O` (stereo partly drawn) [CH, 2-(1-Carboxy-3-phenyl-propylamino)-octanoicacid]: the Ki in experiment [1] is more than 500 nM; in experiment [2], more than 50 µM; in experiment [3] it was more than 50 µM.
On to `CC(C)CC(N[C@H](CCc1ccccc1)CC(=O)O)C(=O)O` (stereo partly drawn) [CI, 2-(1-Carboxymethyl-3-phenyl-propylamino)-4-methyl-pentanoic acid], for which the Ki is more than 500 nM in experiment [1], more than 50 µM in experiment [2] and more than 50 µM in experiment [3].
In the case of `CC(C)CC(N[C@H](CCc1ccccc1)C(=O)O)C(=O)O` (stereo partly drawn) [CM, 2-(1-Carboxy-3-phenyl-propylamino)-4-methyl-pentanoic acid], the values for the Ki in experiment [1], in experiment [2] and in experiment [3] were more than 500 nM, more than 50 µM and more than 50 µM, respectively.
As to `CC(C)C[C@H](NCc1ccc(C(=O)O)cc1)C(=O)O` [CN, 4-[(1-Carboxy-3-methyl-butylamino)-methyl]-benzoic acid], the Ki in experiment [1] was more than 500 nM; in experiment [2] it was more than 50 µM; in experiment [3], more than 50 µM.
